This is an account of results in ChEMBL document CHEMBL3045533, “Synthesis and cytotoxicity of 1-phenylethanolamine carboxamide derivatives: effects on the cell cycle” (Med Chem Res, 2010).

Test [1] has as its system L1210. In words: Induction of apoptosis in Mus musculus (mouse) L1210 cells assessed as viable cells at 500 uM after 3 hr by PI/annexin V-staining based flow cytometric analysis (reference value: 32%). In kind it is functional. The note with it: L1210, 3 h, read-out: Activity. In general terms: Flow cytometry measures light scatter and fluorescence of single cells or particles in a stream.

For a further test, the system named is B16. In words: Cytotoxicity against Mus musculus (mouse) B16 cells after 72 hr by MTT assay. It is filed as functional, cell-based. The note with it: B16, 72 h. (Formazan colour is commonly taken as a measure of viable cells.)
In test [2] the test system is L1210. The test is described as follows: Cytotoxicity against Mus musculus (mouse) L1210 cells after 72 hr by MTT assay. In kind it is functional, cell-based. The note with it: L1210, 72 h.
Test [3] relates to L1210. In words: Induction of apoptosis in Mus musculus (mouse) L1210 cells assessed as apoptotic cells at 500 uM after 3 hr by PI/annexin V-staining based flow cytometric analysis (reference value: 30%). It is filed as functional.
Test [4] has as its system L1210. In words: Induction of apoptosis in Mus musculus (mouse) L1210 cells assessed as cell death at 500 uM after 3 hr by PI/annexin V-staining based flow cytometric analysis (reference value: 5.3%). In kind it is functional.
For test [5], the system named is L1210. In words: Induction of apoptosis in Mus musculus (mouse) L1210 cells at 500 uM after 3 hr by PI-staining based flow cytometric analysis. In kind it is functional, cell-based.
A further test relates to U-937. In words: Cytotoxicity against Homo sapiens (human) U937 cells. It is filed as functional, cell-based.

Converted amounts (≈) assume the structure as drawn. The source made the active and inactive calls. The rule behind the calls is not given here.

For orientation: IC50 means the concentration that inhibits the measured activity by half. The low end stands for higher potency, the high end for lower potency. On to `COc1ccc2[nH]c(C(=O)NCC(O)c3ccc(N)cc3)cc2c1` (centres undefined), for which the viability at 500 µM with L1210 [1] was 48%. In addition, the concentration for half-maximal inhibition (IC50) in the test with B16 worked out at 87 µM; in the test on L1210 [2], 50 µM. Further, the Activity with L1210 [3] is on record as 41%; in the test on L1210 [4], 7%. The result in the test on L1210 [5] was Active.

Turning to `COc1ccc(/C=C/C(=O)NCC(O)c2ccccc2)cc1` (centres undefined), the concentration for half-maximal inhibition (IC50) in the test with B16 and in the test on L1210 [2] was over 100 µM in each case.

Consider `O=C(/C=C/c1ccc([N+](=O)[O-])cc1)NCC(O)c1ccccc1` (centres undefined), for which the IC50 in the test with B16 and in the test with L1210 [2] was over 100 µM in each case.

As to `Nc1ccc(C(O)CNC(=O)/C=C/c2ccc([N+](=O)[O-])cc2)cc1` (centres undefined), the IC50 in the test on B16 is 53 µM; with L1210 [2], 64 µM.

As for `COc1ccc(/C=C/C(=O)NCC(O)c2ccc(N)cc2)cc1` (centres undefined), the results for the IC50 with B16 and in the test with L1210 [2] were 93 µM and over 100 µM, respectively.

In the test on U-937, `COc1cc(/C=C/C(=O)NC[C@@H](O)c2ccc(O)cc2)ccc1O` returned an IC50 of 44 µg/mL (≈ 134 µM).

Turning to `COc1ccc2[nH]c(C(=O)NCC(O)c3ccccc3)cc2c1` (centres undefined), the 50% inhibitory concentration (IC50) in the test on B16 was 84 µM; in the test on L1210 [2] it was 25 µM.

Regarding `COc1cccc(/C=C/C(=O)NCC(O)c2ccccc2)c1` (centres undefined), the half-maximal inhibitory concentration (IC50) was over 100 µM with B16 and 64 µM in the test with L1210 [2].
